Laboratory results reported in patent US20250250257A1, “NOVEL CRYSTALLINE FORMS” (Assembly Biosciences, Inc., priority 2021, published 2025).
In brackets after ≈: the same amount, converted by molar mass. Entries after “also recorded” stand apart in the source; their conditions may differ. One block for each compound: values may come before it.

Assays:
Assay type in all cases: physicochemical
[1] = DVS (water sorption, hygroscopicity, form change post-DVS); conditions: for form change post-DVS (XRPD): after DVS (desorption and resorption); for hygroscopicity (from DVS): based on water sorption at 80% RH
[2] = Competitive slurry studies, solid form checked by XRPD (thermodynamic stability of forms)
Protocol: Competitive slurry studies with Type 1 and the material produced from manufacture (Type 1 and 8 mixture) were performed at 25 and 50° C. in THF, EtOH and EtOAc. The solid form was checked by XRPD on day 3 and day 7.

[3] = Approximate solubility of Compound I, Type 1 at RT in twenty solvents (stepwise solvent addition); conditions: for solubility: thermodynamic from solid, read-out: Approximate Solubility (mg/mL) at RT
Protocol: The solubility of Compound I, Type 1 (6036531-01-A) was estimated at RT in twenty different solvents. Approximately 2 mg solids were added into a 3-mL glass vial. Solvents in Table 39 were then added stepwise (50 μL per step) into the vials until the solids were dissolved or a total volume of 2 mL was reached.

[4] = Approximate solubility test of Compound I at room temperature / 50° C. in different solvents; conditions: thermodynamic from solid
Protocol: The specific steps are as follows: Charge about 5 mg of Compound I into a clean glass vial, […] visible particles (add up to 1.5 mL of solvent), record the amount of solvent at last for the calculation of solubility.

water update at 80% RH (DVS) ([1]; 80% RH): 0.1% | form change post-DVS (XRPD) [1]: No change in crystalline form | hygroscopicity (from DVS) [1]: non-hygroscopic | relative thermodynamic stability of the form ([2]; at 25 and 50° C., versus Type 1): the more thermodynamically stable form
Structure (SMILES): Cn1cnc([C@@H]2C[C@@H]3C[C@@](O)(c4cc(OCC(C)(C)O)nn4C)C[C@@H]3C2)c1C(=O)Nc1ccc(F)c(Cl)c1 [Type 8, N-(3-chloro-4-fluorophenyl)-4-((2s,3aR,5r,6aS)-5-hydroxy-5-(3-(2-hydroxy-2-methylpropoxy)-1-methyl-1H-pyrazol-5-yl)octahydropentalen-2-yl)-1-methyl-1H-imidazole-5-carboxamide]
thermodynamic stability among all forms discovered [2]: the most thermodynamically stable form discovered to date

Characterization (of approximate solubility) ([3]; 1-Butanol): Moderate | Characterization (of approximate solubility) ([3]; 2-MeTHF): Moderate | Characterization (of approximate solubility) ([3]; Acetone): Moderate | Characterization (of approximate solubility) ([3]; Acetonitrile): Poor | Characterization (of approximate solubility) ([3]; CPME): Poor | Characterization (of approximate solubility) ([3]; DCM): Poor | Characterization (of approximate solubility) ([3]; DMF): High | Characterization (of approximate solubility) ([3]; DMSO): High | Characterization (of approximate solubility) ([3]; EtOH): High | Characterization (of approximate solubility) ([3]; H2O): Poor | Characterization (of approximate solubility) ([3]; IPA): Moderate | Characterization (of approximate solubility) ([3]; IPAc): Poor | Characterization (of approximate solubility) ([3]; MEK): Moderate | Characterization (of approximate solubility) ([3]; MIBK): Poor | Characterization (of approximate solubility) ([3]; MTBE): Poor | Characterization (of approximate solubility) ([3]; MeOH): High | Characterization (of approximate solubility) ([3]; THF): High | Characterization (of approximate solubility) ([3]; Toluene): Poor | Characterization (of approximate solubility) ([3]; n-Heptane): Poor | Characterization (of approximate solubility) ([3]; n-Propanol): Moderate | solubility ([3]; organic solvent or mixture, 1-Butanol): 2.4 to 8 mg/mL (≈ 4.4 to 14.7 mM) | solubility ([3]; organic solvent or mixture, 2-MeTHF): 2.2 to 7.3 mg/mL (≈ 4.03 to 13.4 mM) | solubility ([3]; organic solvent or mixture, Acetone): 2.3 to 7.7 mg/mL (≈ 4.21 to 14.1 mM) | solubility ([3]; organic solvent or mixture, Acetonitrile): < 2 mg/mL | solubility ([3]; organic solvent or mixture, CPME): < 2.2 mg/mL | solubility ([3]; organic solvent or mixture, DCM): < 2.4 mg/mL | solubility ([3]; organic solvent or mixture, DMF): > 48 mg/mL | solubility ([3]; organic solvent or mixture, DMSO): > 48 mg/mL | solubility ([3]; organic solvent or mixture, EtOH): 20 to 40 mg/mL (≈ 36.6 to 73.3 mM) | solubility ([3]; organic solvent or mixture, IPA): 2.2 to 7.3 mg/mL (≈ 4.03 to 13.4 mM) | solubility ([3]; organic solvent or mixture, IPAc): < 2.1 mg/mL | solubility ([3]; organic solvent or mixture, MEK): 2.2 to 7.3 mg/mL (≈ 4.03 to 13.4 mM) | solubility ([3]; organic solvent or mixture, MIBK): < 2.2 mg/mL | solubility ([3]; organic solvent or mixture, MTBE): < 2 mg/mL | solubility ([3]; organic solvent or mixture, MeOH): > 42 mg/mL | solubility ([3]; organic solvent or mixture, THF): 21 to 42 mg/mL (≈ 38.5 to 76.9 mM) | solubility ([3]; organic solvent or mixture, Toluene): < 2.5 mg/mL | solubility ([3]; organic solvent or mixture, n-Heptane): < 2.3 mg/mL | solubility ([3]; organic solvent or mixture, n-Propanol): 2.2 to 7.3 mg/mL (≈ 4.03 to 13.4 mM) | solubility ([3]; water, H2O): < 2.5 mg/mL | water content at 80% RH by DVS ([1]; 80% RH): 0.67% | form change post-DVS (XRPD) [1]: no form change | hygroscopicity (from DVS) [1]: slightly hygroscopic
Structure (SMILES): Cn1cnc([C@@H]2C[C@@H]3C[C@@](O)(c4cc(OCC(C)(C)O)nn4C)C[C@@H]3C2)c1C(=O)Nc1ccc(F)c(Cl)c1 [Type 1, N-(3-chloro-4-fluorophenyl)-4-((2s,3aR,5r,6aS)-5-hydroxy-5-(3-(2-hydroxy-2-methylpropoxy)-1-methyl-1H-pyrazol-5-yl)octahydropentalen-2-yl)-1-methyl-1H-imidazole-5-carboxamide]

solubility ([4]; organic solvent or mixture, ACN, 20-25° C., read-out: Solubility (mg/mL) 20-25° C.): < 3.3 mg/mL | solubility ([4]; organic solvent or mixture, ACN, 50° C., read-out: Solubility (mg/mL) 50° C.): < 3.3 mg/mL | solubility ([4]; organic solvent or mixture, Acetone, 20-25° C., read-out: Solubility (mg/mL) 20-25° C.): < 3.3 mg/mL | solubility ([4]; organic solvent or mixture, Acetone, 50° C., read-out: Solubility (mg/mL) 50° C.): 3.8 to 4 mg/mL (≈ 6.96 to 7.33 mM) | solubility ([4]; organic solvent or mixture, Acetone/H2O = 95/5(V/V), 20-25° C., read-out: Solubility (mg/mL) 20-25° C.): 5 to 5.1 mg/mL (≈ 9.16 to 9.34 mM) | solubility ([4]; organic solvent or mixture, Acetone/H2O = 95/5(V/V), 50° C., read-out: Solubility (mg/mL) 50° C.): 6.5 to 6.7 mg/mL (≈ 11.9 to 12.3 mM) | solubility ([4]; organic solvent or mixture, DCM, 20-25° C., read-out: Solubility (mg/mL) 20-25° C.): < 3.3 mg/mL | solubility ([4]; organic solvent or mixture, DCM, 50° C., read-out: Solubility (mg/mL) 50° C.): < 3.3 mg/mL | solubility ([4]; organic solvent or mixture, DMSO, 20-25° C., read-out: Solubility (mg/mL) 20-25° C.): 167 to 200 mg/mL (≈ 306 to 366 mM) | solubility ([4]; organic solvent or mixture, DMSO, 50° C., read-out: Solubility (mg/mL) 50° C.): 250 to 333 mg/mL (≈ 458 to 610 mM) | solubility ([4]; organic solvent or mixture, EA, 20-25° C., read-out: Solubility (mg/mL) 20-25° C.): < 3.3 mg/mL | solubility ([4]; organic solvent or mixture, EA, 50° C., read-out: Solubility (mg/mL) 50° C.): < 3.3 mg/mL | solubility ([4]; organic solvent or mixture, EtOH, 20-25° C., read-out: Solubility (mg/mL) 20-25° C.): 8 to 8.3 mg/mL (≈ 14.7 to 15.2 mM) | solubility ([4]; organic solvent or mixture, EtOH, 50° C., read-out: Solubility (mg/mL) 50° C.): 20 to 20.4 mg/mL (≈ 36.6 to 37.4 mM) | solubility ([4]; organic solvent or mixture, EtOH/H2O = 95/5(V/V), 20-25° C., read-out: Solubility (mg/mL) 20-25° C.): 22.2 to 23.2 mg/mL (≈ 40.7 to 42.5 mM) | solubility ([4]; organic solvent or mixture, EtOH/H2O = 95/5(V/V), 50° C., read-out: Solubility (mg/mL) 50° C.): 45.4 to 47.6 mg/mL (≈ 83.1 to 87.2 mM) | solubility ([4]; organic solvent or mixture, Heptane, 20-25° C., read-out: Solubility (mg/mL) 20-25° C.): < 3.3 mg/mL | solubility ([4]; organic solvent or mixture, Heptane, 50° C., read-out: Solubility (mg/mL) 50° C.): < 3.3 mg/mL | solubility ([4]; organic solvent or mixture, IPA, 20-25° C., read-out: Solubility (mg/mL) 20-25° C.): < 3.3 mg/mL | solubility ([4]; organic solvent or mixture, IPA, 50° C., read-out: Solubility (mg/mL) 50° C.): 5 to 5.1 mg/mL (≈ 9.16 to 9.34 mM) | solubility ([4]; organic solvent or mixture, IPA/H2O = 95/5(V/V), 20-25° C., read-out: Solubility (mg/mL) 20-25° C.): < 3.3 mg/mL | solubility ([4]; organic solvent or mixture, IPA/H2O = 95/5(V/V), 50° C., read-out: Solubility (mg/mL) 50° C.): 8 to 8.1 mg/mL (≈ 14.7 to 14.8 mM) | solubility ([4]; organic solvent or mixture, IPAc, 20-25° C., read-out: Solubility (mg/mL) 20-25° C.): < 3.3 mg/mL | solubility ([4]; organic solvent or mixture, IPAc, 50° C., read-out: Solubility (mg/mL) 50° C.): < 3.3 mg/mL | solubility ([4]; organic solvent or mixture, MTBE, 20-25° C., read-out: Solubility (mg/mL) 20-25° C.): < 3.3 mg/mL | solubility ([4]; organic solvent or mixture, MTBE, 50° C., read-out: Solubility (mg/mL) 50° C.): < 3.3 mg/mL | solubility ([4]; organic solvent or mixture, MeOH, 20-25° C., read-out: Solubility (mg/mL) 20-25° C.): 32.2 to 33.3 mg/mL (≈ 59 to 61 mM) | solubility ([4]; organic solvent or mixture, MeOH, 50° C., read-out: Solubility (mg/mL) 50° C.): 74.1 to 76.9 mg/mL (≈ 136 to 141 mM) | solubility ([4]; organic solvent or mixture, THF, 20-25° C., read-out: Solubility (mg/mL) 20-25° C.): 12.5 to 12.6 mg/mL (≈ 22.9 to 23.1 mM) | solubility ([4]; organic solvent or mixture, THF, 50° C., read-out: Solubility (mg/mL) 50° C.): 18.1 to 18.5 mg/mL (≈ 33.1 to 33.9 mM) | solubility ([4]; organic solvent or mixture, Toluene, 20-25° C., read-out: Solubility (mg/mL) 20-25° C.): < 3.3 mg/mL | solubility ([4]; organic solvent or mixture, Toluene, 50° C., read-out: Solubility (mg/mL) 50° C.): < 3.3 mg/mL | solubility ([4]; water, H2O, 20-25° C., read-out: Solubility (mg/mL) 20-25° C.): < 3.3 mg/mL | solubility ([4]; water, H2O, 50° C., read-out: Solubility (mg/mL) 50° C.): < 3.3 mg/mL
Structure (SMILES): Cn1cnc(C2CC3CC(O)(c4cc(OCC(C)(C)O)nn4C)CC3C2)c1C(=O)Nc1ccc(F)c(Cl)c1 (stereo not shown) [Compound I, N-(3-Chloro-4-fluorophenyl)-4-(5-hydroxy-5-(3-(2-hydroxy-2-methylpropoxy)-1-methyl-1H-pyrazol-5-yl)octahydropentalen-2-yl)-1-methyl-1H-imidazole-5-carboxamide]

RH range in which the form is stable (DVS) [1]: 30-95 % RH | water content at 80% RH by DVS ([1]; 80% RH): 9.2%
Structure (SMILES): Cn1cnc([C@@H]2C[C@@H]3C[C@@](O)(c4cc(OCC(C)(C)O)nn4C)C[C@@H]3C2)c1C(=O)Nc1ccc(F)c(Cl)c1 [Type 2, N-(3-chloro-4-fluorophenyl)-4-((2s,3aR,5r,6aS)-5-hydroxy-5-(3-(2-hydroxy-2-methylpropoxy)-1-methyl-1H-pyrazol-5-yl)octahydropentalen-2-yl)-1-methyl-1H-imidazole-5-carboxamide]
form change post-DVS (XRPD) [1]: Form change was observed post-DVS to a lower order hydrate; also recorded: converted to Type 3
